For assay [1], the target named is T1, ΔF508-CFTR (Homo sapiens, UniProt P13569, DEL508-508).
T1 construct: host or cells: CFBE41o-, doxycycline-inducible
Kind of assay: CFTR cell surface levels using HRP-tagged ΔF508-CFTR expressing CFBE cells, in the presence of a co-corrector. In kind it is cell-based. Particulars: HRP-tagged ΔF508-CFTR CFBE cells, in the presence of 3 μM co-corrector; for EC50: read-out: EC50. The procedure, abridged:
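Chemiluminescent read-out of surface HRP (15 min, dark) after PBS washes. Activity is normalized as 100×(sample−DMSO)/(3 μM co-corrector alone−DMSO).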

In assay [2] the target is T1, ΔF508-CFTR. As to the kind of experiment: CFTR cell surface levels using HRP-tagged ΔF508-CFTR expressing CFBE cells, intrinsic corrector capacity. More on the design: % Activation: concentration or dose not given beside the values. In kind it is cell-based. Particulars: HRP-tagged ΔF508-CFTR expressing CFBE41o- cells, compound alone (intrinsic corrector capacity), 20 hours at 33° C.; for EC50: read-out: EC50. The essentials: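 Read-out: chemiluminescent HRP activity of ECL4-HRP-tagged ΔF508-CFTR at the cell surface, 15 min substrate in dark. Normalized as 100×(sample−DMSO)/(positive control−DMSO).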

As a reminder, the EC50 is the concentration at which the effect is half-maximal.

T1 sequence (P13569 with tags, fused parts or gaps DEL508-508): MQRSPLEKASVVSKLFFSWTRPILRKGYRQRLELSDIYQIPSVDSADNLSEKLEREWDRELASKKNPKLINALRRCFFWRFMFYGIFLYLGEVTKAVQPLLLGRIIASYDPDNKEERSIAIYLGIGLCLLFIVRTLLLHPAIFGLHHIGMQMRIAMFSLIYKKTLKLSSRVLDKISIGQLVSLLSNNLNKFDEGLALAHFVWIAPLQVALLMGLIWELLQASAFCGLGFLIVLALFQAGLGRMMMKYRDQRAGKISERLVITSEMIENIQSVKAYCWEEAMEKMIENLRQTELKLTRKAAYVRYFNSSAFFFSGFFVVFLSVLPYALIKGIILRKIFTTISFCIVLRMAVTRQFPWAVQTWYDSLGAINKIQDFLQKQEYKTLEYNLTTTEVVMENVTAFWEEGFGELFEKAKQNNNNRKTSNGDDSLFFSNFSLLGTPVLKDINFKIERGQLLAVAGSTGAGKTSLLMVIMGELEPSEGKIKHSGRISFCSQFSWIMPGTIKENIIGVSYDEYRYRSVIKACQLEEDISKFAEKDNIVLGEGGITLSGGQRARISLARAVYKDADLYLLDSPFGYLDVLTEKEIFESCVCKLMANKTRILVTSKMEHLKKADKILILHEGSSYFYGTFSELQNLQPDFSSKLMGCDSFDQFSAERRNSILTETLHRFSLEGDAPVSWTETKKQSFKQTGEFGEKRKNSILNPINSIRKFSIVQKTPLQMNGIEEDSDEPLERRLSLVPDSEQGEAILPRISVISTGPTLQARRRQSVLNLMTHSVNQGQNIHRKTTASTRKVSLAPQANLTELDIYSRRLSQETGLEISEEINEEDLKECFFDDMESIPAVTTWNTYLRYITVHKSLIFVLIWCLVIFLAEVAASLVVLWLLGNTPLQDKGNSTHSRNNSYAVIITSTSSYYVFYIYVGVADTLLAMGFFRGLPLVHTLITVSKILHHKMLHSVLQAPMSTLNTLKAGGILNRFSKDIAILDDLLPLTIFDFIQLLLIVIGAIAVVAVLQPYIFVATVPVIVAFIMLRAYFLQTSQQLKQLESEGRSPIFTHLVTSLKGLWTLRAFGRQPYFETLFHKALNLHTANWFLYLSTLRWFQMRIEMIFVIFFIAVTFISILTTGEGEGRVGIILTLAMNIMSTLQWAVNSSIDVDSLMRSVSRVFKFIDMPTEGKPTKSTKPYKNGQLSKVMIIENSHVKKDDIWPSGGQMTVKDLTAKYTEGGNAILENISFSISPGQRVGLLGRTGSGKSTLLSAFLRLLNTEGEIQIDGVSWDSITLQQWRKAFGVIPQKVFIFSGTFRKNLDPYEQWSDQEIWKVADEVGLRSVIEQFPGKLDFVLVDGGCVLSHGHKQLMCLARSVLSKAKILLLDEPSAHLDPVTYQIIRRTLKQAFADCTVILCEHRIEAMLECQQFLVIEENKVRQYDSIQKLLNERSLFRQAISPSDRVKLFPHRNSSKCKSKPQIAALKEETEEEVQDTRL

In the case of `CC(C)c1nn(-c2ccc(F)cc2)c2nc(C(=O)NS(C)(=O)=O)cc(N3CCN(C4CCC4)CC3)c12` [Compound 280, 4-(4-cyclobutylpiperazin-1-yl)-1-(4-fluorophenyl)-N-(methanesulfonyl)-3-(propan-2-yl)-1H-pyrazolo[3,4-b]pyridine-6-carboxamide], on ΔF508-CFTR [1], the “% Activation” value is reported as 323.37% and the EC50 was 1010 nM. Further, on ΔF508-CFTR [2], the “% Activation” value amounted to 121.9% and the EC50 stood at 1010 nM.

With `CS(=O)(=O)NC(=O)c1cc(OCCCN2CCOCC2)c2c(C3CCC3)nn(-c3ccccc3)c2n1` [Compound 281, 3-cyclobutyl-N-(methanesulfonyl)-4-[3-(morpholin-4-yl)propoxy]-1-phenyl-1H-pyrazolo[3,4-b]pyridine-6-carboxamide], on ΔF508-CFTR [1], the “% Activation” value amounted to 398.47% and the EC50 was 242 nM. At ΔF508-CFTR [2], the “% Activation” value is on record as 230.15% and the concentration for a half-maximal effect (EC50) came to 457 nM.

Regarding `CC1(COc2cc(C(=O)NS(C)(=O)=O)nc3c2c(C2CCC2)nn3-c2ccccc2)CC(F)(F)C1` [Compound 282, 3-cyclobutyl-4-[(3,3-difluoro-1-methylcyclobutyl)methoxy]-N-(methanesulfonyl)-1-phenyl-1H-pyrazolo[3,4-b]pyridine-6-carboxamide], at ΔF508-CFTR [1], the “% Activation” value was 379.95% and the EC50 stood at 89 nM. For the same molecule, at ΔF508-CFTR [2], the “% Activation” value was found to be 127.8% and the EC50 amounted to 129 nM.

Regarding `CS(=O)(=O)NC(=O)c1cc(OCC2CCCO2)c2c(C3CCC3)nn(-c3ccccc3)c2n1` (stereo not shown) [Compound 283, 3-cyclobutyl-N-(methanesulfonyl)-4-[(oxolan-2-yl)methoxy]-1-phenyl-1H-pyrazolo[3,4-b]pyridine-6-carboxamide], at ΔF508-CFTR [1], the “% Activation” value came out at 326.85% and the EC50 came to 265 nM. Further, at ΔF508-CFTR [2], the “% Activation” value amounted to 141.2% and the EC50 stood at 477 nM.

On to `CC(C)c1nn(-c2ccc(F)cc2)c2nc(C(=O)NS(C)(=O)=O)cc(OCC3CCOCC3)c12` [Compound 284, 1-(4-fluorophenyl)-N-(methanesulfonyl)-4-[(oxan-4-yl)methoxy]-3-(propan-2-yl)-1H-pyrazolo[3,4-b]pyridine-6-carboxamide], for which, at ΔF508-CFTR [1], the “% Activation” value was determined as 348.7% and the EC50 amounted to 220 nM. On ΔF508-CFTR [2], the “% Activation” value is 154.4% and the EC50 is 276 nM.

Consider `CC(C)c1nn(-c2ccc(F)cc2)c2nc(C(=O)NS(C)(=O)=O)cc(OCCC3CCOCC3)c12` [Compound 285, 1-(4-fluorophenyl)-N-(methanesulfonyl)-4-[2-(oxan-4-yl)ethoxy]-3-(propan-2-yl)-1H-pyrazolo[3,4-b]pyridine-6-carboxamide], for which, at ΔF508-CFTR [1], the “% Activation” value is 327.57% and the EC50 amounted to 246 nM. On ΔF508-CFTR [2], the “% Activation” value worked out at 125.5% and the EC50 amounted to 294 nM.

On to `COCC1CCN(c2cc(C(=O)NS(=O)(=O)c3cn(C)cn3)nc3c2c(C2CCC2)nn3-c2ccccc2)CC1` [Compound 286, 3-cyclobutyl-4-[4-(methoxymethyl)piperidin-1-yl]-N-(1-methyl-1H-imidazole-4-sulfonyl)-1-phenyl-1H-pyrazolo[3,4-b]pyridine-6-carboxamide], for which the results for the “% Activation” value at ΔF508-CFTR [1] and at ΔF508-CFTR [2] were 500.55% and 264%, respectively. Also, the EC50 is 159 nM on ΔF508-CFTR [1] and 327 nM on ΔF508-CFTR [2].

Regarding `COCC1CCN(c2cc(C(=O)NS(=O)(=O)c3c(C)noc3C)nc3c2c(C2CCC2)nn3-c2ccccc2)CC1` [Compound 287, 3-cyclobutyl-N-(3,5-dimethyl-1,2-oxazole-4-sulfonyl)-4-[4-(methoxymethyl)piperidin-1-yl]-1-phenyl-1H-pyrazolo[3,4-b]pyridine-6-carboxamide], the results for the “% Activation” value on ΔF508-CFTR [1] and at ΔF508-CFTR [2] were 450.9% and 204.9%, respectively. Further, the figures for the EC50 on ΔF508-CFTR [1] and on ΔF508-CFTR [2] were 128 nM and 183 nM, respectively.

With `COCC1CCN(c2cc(C(=O)NS(=O)(=O)CCCN(C)C)nc3c2c(C(C)C)nn3-c2ccc(F)cc2)CC1` [Compound 290, N-[3-(dimethylamino)propane-1-sulfonyl]-1-(4-fluorophenyl)-4-[4-(methoxymethyl)piperidin-1-yl]-3-(propan-2-yl)-1H-pyrazolo[3,4-b]pyridine-6-carboxamide], on ΔF508-CFTR [1], the “% Activation” value was found to be 382.2% and the EC50 turned out to be 536 nM. At ΔF508-CFTR [2], the “% Activation” value came out at 200.4% and the concentration giving a half-maximal response (EC50) is 617 nM.

Consider `CC(C)c1nn(-c2ccc(F)cc2)c2nc(C(=O)NS(C)(=O)=O)cc(OCCCN3CCOCC3)c12` [Compound 292, 1-(4-fluorophenyl)-N-(methanesulfonyl)-4-[3-(morpholin-4-yl)propoxy]-3-(propan-2-yl)-1H-pyrazolo[3,4-b]pyridine-6-carboxamide], for which the “% Activation” value on ΔF508-CFTR [1] stood at 422.55%; on ΔF508-CFTR [2] it was 217.9%. Moreover, the EC50 on ΔF508-CFTR [1] was found to be 565 nM; at ΔF508-CFTR [2] it was 1060 nM.

With `CC(C)c1nn(-c2ccc(F)cc2)c2nc(C(=O)NS(C)(=O)=O)cc(OCC3(C)COC3)c12` [Compound 293, 1-(4-fluorophenyl)-N-(methanesulfonyl)-4-[(3-methyloxetan-3-yl)methoxy]-3-(propan-2-yl)-1H-pyrazolo[3,4-b]pyridine-6-carboxamide], on ΔF508-CFTR [1], the “% Activation” value turned out to be 317.1% and the concentration for a half-maximal effect (EC50) worked out at 480 nM. Further, at ΔF508-CFTR [2], the “% Activation” value was 113.3% and the EC50 amounted to 622 nM.

Consider `CC(C)c1nn(-c2ccc(F)cc2)c2nc(C(=O)NS(C)(=O)=O)cc(OCC3CCCO3)c12` (stereo not shown) [Compound 295, 1-(4-fluorophenyl)-N-(methanesulfonyl)-4-[(oxolan-2-yl)methoxy]-3-(propan-2-yl)-1H-pyrazolo[3,4-b]pyridine-6-carboxamide], for which, on ΔF508-CFTR [1], the “% Activation” value was 298.07% and the concentration for a half-maximal effect (EC50) was found to be 697 nM. At ΔF508-CFTR [2], the “% Activation” value was 129.6% and the half-maximal effective concentration (EC50) came to 1050 nM.

Take `CC(=O)N1CCC(COc2cc(C(=O)NS(C)(=O)=O)nc3c2c(C2CCC2)nn3-c2ccccc2)CC1` [Compound 296, 4-[(1-acetylpiperidin-4-yl)methoxy]-3-cyclobutyl-N-(methanesulfonyl)-1-phenyl-1H-pyrazolo[3,4-b]pyridine-6-carboxamide]: the “% Activation” value on ΔF508-CFTR [1] is given as 329.13%; at ΔF508-CFTR [2], 154.7%. Moreover, the EC50 on ΔF508-CFTR [1] worked out at 168 nM; on ΔF508-CFTR [2], 396 nM.

For the molecule `COCC1CCN(c2cc(C(=O)NS(=O)(=O)CCC(=O)N(C)C)nc3c2c(C2CCC2)nn3-c2ccccc2)CC1` [Compound 298, 3-cyclobutyl-N-[3-(dimethylamino)-3-oxopropane-1-sulfonyl]-4-[4-(methoxymethyl)piperidin-1-yl]-1-phenyl-1H-pyrazolo[3,4-b]pyridine-6-carboxamide], the “% Activation” value on ΔF508-CFTR [1] was 481.2%; at ΔF508-CFTR [2], 312.9%. In addition, the EC50 on ΔF508-CFTR [1] was determined as 81 nM; on ΔF508-CFTR [2], 282 nM.

Take `CC(C)c1nn(-c2ccc(F)cc2)c2nc(C(=O)NS(C)(=O)=O)cc(OCCCN(C)C)c12` [Compound 299, 4-[3-(dimethylamino)propoxy]-1-(4-fluorophenyl)-N-(methanesulfonyl)-3-(propan-2-yl)-1H-pyrazolo[3,4-b]pyridine-6-carboxamide]: at ΔF508-CFTR [1], the “% Activation” value was determined as 267.2% and the EC50 was found to be 2510 nM. Moreover, at ΔF508-CFTR [2], the “% Activation” value came out at 81.41% and the EC50 was found to be 3330 nM.

In the case of `CS(=O)(=O)NC(=O)c1cc(-c2ccc(N3CCC(C#N)CC3)nc2)c2c(OC3COC3)nn(-c3ccccc3)c2n1` [Compound 300, 4-[6-(4-cyanopiperidin-1-yl)pyridin-3-yl]-N-(methanesulfonyl)-3-[(oxetan-3-yl)oxy]-1-phenyl-1H-pyrazolo[3,4-b]pyridine-6-carboxamide], at ΔF508-CFTR [1], the “% Activation” value came out at 266.55% and the EC50 stood at 109 nM. Further, on ΔF508-CFTR [2], the “% Activation” value was 119.9% and the concentration for a half-maximal effect (EC50) is 309 nM.

Turning to `CN(C)CCCOc1cc(C(=O)NS(C)(=O)=O)nc2c1c(C1CCC1)nn2-c1ccccc1` [Compound 303, 3-cyclobutyl-4-[3-(dimethylamino)propoxy]-N-(methanesulfonyl)-1-phenyl-1H-pyrazolo[3,4-b]pyridine-6-carboxamide], at ΔF508-CFTR [1], the “% Activation” value is 339.95% and the concentration giving a half-maximal response (EC50) is 834 nM. Besides, on ΔF508-CFTR [2], the “% Activation” value stood at 149.9% and the EC50 stood at 3330 nM.

For the molecule `CC(C)c1nn(-c2ccc(F)cc2)c2nc(C(=O)NS(C)(=O)=O)cc(OCC3(C)CC(F)(F)C3)c12` [Compound 306, 4-[(3,3-difluoro-1-methylcyclobutyl)methoxy]-1-(4-fluorophenyl)-N-(methanesulfonyl)-3-(propan-2-yl)-1H-pyrazolo[3,4-b]pyridine-6-carboxamide], the “% Activation” value on ΔF508-CFTR [1] is recorded as 321.1%; at ΔF508-CFTR [2], 146.7%. The EC50 on ΔF508-CFTR [1] came out at 82.4 nM; at ΔF508-CFTR [2], 158 nM.

`CC(C)c1nn(-c2ccc(F)cc2)c2nc(C(=O)NS(C)(=O)=O)cc(OCCCN3CCCCC3)c12` [Compound 307, 1-(4-fluorophenyl)-N-(methanesulfonyl)-4-[3-(piperidin-1-yl)propoxy]-3-(propan-2-yl)-1H-pyrazolo[3,4-b]pyridine-6-carboxamide]: the “% Activation” value worked out at 299.25% on ΔF508-CFTR [1] and 172.7% on ΔF508-CFTR [2]. For the same molecule, the half-maximal effective concentration (EC50) was 1280 nM at ΔF508-CFTR [1] and 3330 nM at ΔF508-CFTR [2].

Source of the values: US10259810B2, “N-sulfonylated pyrazolo[3,4-b]pyridin-6-carboxamides and method of use” (AbbVie S.à.r.l., priority 2015, dated 2019).
